Experimental data published in patent US20020002171A1, “Materials and methods for killing nematodes and nematode eggs” (priority 2000, published 2002).

Tested on: Caenorhabditis elegans
Experiment: C. elegans L1 nematicidal dose response in 96-well plates, 5 day visual score (Example 2; same procedure for Example 7, Table 3)
Format: in vivo
Parameters: key to 5 Day Visual Score V1 / 5 Day Visual Score V2 / 5 Day Visual Score V3 / 5 Day Visual Score V4 / 5 Day Visual Score V6 / 5 Day Visual Score V5 / Initial HTS Run Visual Score / Follow-up HTS Run Visual Score: Dead: only stiff L1s (no movement); Dead (L4): worms are dead, but at a later larval stage; majority of worms are L1 (based on size) worms move when plate is tapped; majority of worms are L2 (based on size); majority of worms are L3 (based on size); majority of worms are L4 (based on size); AD: majority of worms are adult; #AD: 5 adult worms or less; B!: sterile (0-25 progeny); B: low broodsize (25-100 progeny); ˜B: moderate broodsize (100-250 progeny); <: reduced broodsize (250-500 progeny); OK: no effect (˜1000+ progeny)
Conditions: for 5 Day Visual Score V1 / 5 Day Visual Score V3 / 5 Day Visual Score V4 / 5 Day Visual Score V5 / 5 Day Visual Score V6 / 5 Day Visual Score V2: dose response
How it was run: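 L1 larvae, 20 per well in NGM with 1% E. coli HB101 and antibiotic/antimycotic, exposed to six 3-fold dilutions from 70 μM down to 0.3 μM (1.4% DMSO at top). Held at 20° C; viability scored visually under 100× dissecting microscope on day 5.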

Structure (SMILES)	Follow-up HTS Run % Run [%]	Follow-up HTS Run Visual Score	Follow-up HTS Run mOD [mOD]	Initial HTS Run % Run [%]	Initial HTS Run Visual Score	Initial HTS Run mOD [mOD]	5 Day Visual Score V1 (dilution V1, day 5)	5 Day Visual Score V3 (dilution V3, day 5)	5 Day Visual Score V4 (dilution V4, day 5)	5 Day Visual Score V5 (dilution V5, day 5)	5 Day Visual Score V6 (dilution V6, day 5)	5 Day Visual Score V2 (dilution V2, day 5)	5 Day Visual Score V1 (dilution V1, 5 day)	5 Day Visual Score V2 (dilution V2, 5 day)	5 Day Visual Score V3 (dilution V3, 5 day)	5 Day Visual Score V4 (dilution V4, 5 day)	5 Day Visual Score V5 (dilution V5, 5 day)	5 Day Visual Score V6 (dilution V6, 5 day)
CCCCC(CC)CN(CC(CC)CCCC)c1nc(NCc2ccc(C(F)(F)F)cc2)ns1 (stereo not drawn) [compound 307]	110	B! (sterile (0-25 progeny))	177	100	L4/AD/B	110	Dead	OK (no effect (˜1000+ progeny))	OK (no effect (˜1000+ progeny))	OK (no effect (˜1000+ progeny))	OK (no effect (˜1000+ progeny))							
CCCCN(CC)c1nc(NCc2ccc(C(F)(F)F)cc2)ns1 [compound 308]	130		210	112		123	L1	#AD/˜B	OK (no effect (˜1000+ progeny))	OK (no effect (˜1000+ progeny))	OK (no effect (˜1000+ progeny))							
CCCCN(Cc1ccccc1)c1nc(NCc2ccc(C(F)(F)F)cc2)ns1 [compound 309]	119		191	106	L4/AD/B!	117	L1	OK (no effect (˜1000+ progeny))	OK (no effect (˜1000+ progeny))	OK (no effect (˜1000+ progeny))	OK (no effect (˜1000+ progeny))	B (low broodsize (25-100 progeny))						
CCN(Cc1ccccc1)c1nc(NCc2ccc(C(F)(F)F)cc2)ns1 [compound 310]	116		187	102		112							Dead	B (low broodsize (25-100 progeny))	˜B (moderate broodsize (100-250 progeny))	#AD/˜B	OK (no effect (˜1000+ progeny))	OK (no effect (˜1000+ progeny))
CC(C)CN(CC(C)C)c1nc(NCc2ccc(C(F)(F)F)cc2)ns1 [compound 311]	109	B! (sterile (0-25 progeny))	176	98	L4/AD/B!	108							L1	< (reduced broodsize (250-500 progeny))	OK (no effect (˜1000+ progeny))	OK (no effect (˜1000+ progeny))	OK (no effect (˜1000+ progeny))	OK (no effect (˜1000+ progeny))
C=CCN(CC=C)c1nc(NCc2ccc(C(F)(F)F)cc2)ns1 [compound 312]	115		185	104		114							L1		˜B (moderate broodsize (100-250 progeny))	OK (no effect (˜1000+ progeny))	OK (no effect (˜1000+ progeny))	OK (no effect (˜1000+ progeny))
CCOC(=O)CCN(Cc1ccccc1)c1nc(NCc2ccc(C(F)(F)F)cc2)ns1 [compound 313]	106		170	97	L2 - (Dead L3)	107							Dead(L2/L3)	Dead(L3)		< (reduced broodsize (250-500 progeny))	OK (no effect (˜1000+ progeny))	OK (no effect (˜1000+ progeny))
CN(CCc1ccccc1)c1nc(NCc2ccc(C(F)(F)F)cc2)ns1 [compound 314]	103		166	106		117							L1	L4#AD/B! and L1	L1			OK (no effect (˜1000+ progeny))
CN(Cc1ccccc1)c1nc(NCc2ccc(C(F)(F)F)cc2)ns1 [compound 315]	118		190	112		123							L1			˜B (moderate broodsize (100-250 progeny))	OK (no effect (˜1000+ progeny))	< (reduced broodsize (250-500 progeny))
OCC1CCCN1c1nc(NCc2ccc(C(F)(F)F)cc2)ns1 (stereo not drawn) [compound 316]	106	L2	171	100	Dead(L3)	110							Dead	Dead(L3)	˜B (moderate broodsize (100-250 progeny))	< (reduced broodsize (250-500 progeny))	OK (no effect (˜1000+ progeny))	OK (no effect (˜1000+ progeny))
COc1ccc(CCN(C)c2nc(NCc3ccc(C(F)(F)F)cc3)ns2)cc1OC [compound 317]	111	L2	179	108		119							Dead		OK (no effect (˜1000+ progeny))	OK (no effect (˜1000+ progeny))	OK (no effect (˜1000+ progeny))	OK (no effect (˜1000+ progeny))
Cc1cccc(C)c1N1CCN(c2nc(NCc3ccccc3C(F)(F)F)ns2)CC1 [compound 318]	111	B (low broodsize (25-100 progeny))	178	101	B!-Clear-Few Eggs	111							B (low broodsize (25-100 progeny))	˜B (moderate broodsize (100-250 progeny))	OK (no effect (˜1000+ progeny))	OK (no effect (˜1000+ progeny))	OK (no effect (˜1000+ progeny))	OK (no effect (˜1000+ progeny))
CCCCN(CC)c1nc(NCc2ccc(C(F)(F)F)cc2)ns1 [compound 319]	127	L2	205	121	L2	133								˜B (moderate broodsize (100-250 progeny))	OK (no effect (˜1000+ progeny))	OK (no effect (˜1000+ progeny))	OK (no effect (˜1000+ progeny))	OK (no effect (˜1000+ progeny))
CCN(Cc1ccccc1)c1nc(NCc2ccccc2C(F)(F)F)ns1 [compound 320]	118		190	102		112							L4#AD/B!	< (reduced broodsize (250-500 progeny))	OK (no effect (˜1000+ progeny))	OK (no effect (˜1000+ progeny))	OK (no effect (˜1000+ progeny))	OK (no effect (˜1000+ progeny))
C=CCN(CC=C)c1nc(NCc2ccccc2C(F)(F)F)ns1 [compound 321]	116		186	95	Dead/2L2	105										OK (no effect (˜1000+ progeny))	OK (no effect (˜1000+ progeny))	OK (no effect (˜1000+ progeny))
CN(CCc1ccccc1)c1nc(NCc2ccccc2C(F)(F)F)ns1 [compound 322]	111	B (low broodsize (25-100 progeny))	178	94	B!-Clear-Few Eggs	103							B! (sterile (0-25 progeny))		OK (no effect (˜1000+ progeny))	OK (no effect (˜1000+ progeny))	OK (no effect (˜1000+ progeny))	OK (no effect (˜1000+ progeny))
